Peptide text beside a SMILES is read from it. * marks the point of attachment. pNA = O=[N+]([O-])c1ccc(N*)cc1
Tests used:
[1] = system: purified human submaxillary enzyme (X-prolyl dipeptidyl-aminopeptidase); experiment: Direct photometric assay of substrate hydrolysis with purified human submaxillary enzyme; type: biochemical; conditions: for Optimum pH: Tris-maleate, glycine-NaOH or amidiol buffer; for Relative enzyme activity (%) Purified human submaxillary enzyme pH 7.0: pH 7.0, 0.15 M Tris-maleate buffer, glycyl-L-proline p-nitroanilide = 100; for Km: pH 7.0, Tris-maleate buffer, mean of duplicate experiments
Description: (§1) 3mM substrate solutions were prepared as in Example 22, various dipeptide derivatives or salts thereof being used as substrates. The relative enzyme activities toward various substrates, and the rates and optimum pHs of hydrolysis of various substrates with the enzyme were measured as in Example 22.
^a Activities were measured in 0.15 M Trismaleate buffer at pH 5.6-8.
and in 0.15 M glycineNaOH buffer at pH 8.2-9.4, purified human
submaxillary enzyme being used. For Lalanyl-L-proline pnitroanilide,
amidiol buffer were used instead of glycine buffer, since glycine buffer
interfered the photometry at pH 9-10.
^b Km values were measured at 7.0 in Trismaleate buffer, purified
human submaxillary enzyme being used. The values are the mean of duplicat
(§2) ^c Activities were measured at pH 7.0 in 0.15 M Trismaleate buffer or
(§3) at pH 8.7 in 0.15 M glycineNaOH buffer. The values are the mean of
^d The purified enzyme was obtained by the following method; The
enzyme was solubilized from the microsomal fraction by autodigestion, and
subsequently purified by (NH4)2 SO4 fractionation followed
by Sephadex G200 chromatography.

[2] = biological target: T1, X-prolyl dipeptidyl-aminopeptidase in human serum (Homo sapiens, UniProt P27487); experiment: Direct photometric assay of substrate hydrolysis (p-nitroaniline liberated, 385 nm) with human serum as enzyme source; type: biochemical; conditions: for Enzyme activity (μmole/min/1 serum ± S.E.): 3 cases; for Relative enzyme activity (%) Human serum pH 7.0: pH 7.0, 0.15 M Tris-maleate buffer; for Relative enzyme activity (%) Human serum pH 7.0 / Relative enzyme activity (%) Human serum pH 8.7: glycyl-L-proline p-nitroanilide = 100; for Relative enzyme activity (%) Human serum pH 8.7: pH 8.7, 0.15 M glycine-NaOH buffer
T1 construct: Even if crude enzyme such as human serum is used as enzyme source, the activity is accurately measured; from tissue; host or cells: human serum (normal subjects and patients)
T1 sequence (P27487 39-766 limits assumed): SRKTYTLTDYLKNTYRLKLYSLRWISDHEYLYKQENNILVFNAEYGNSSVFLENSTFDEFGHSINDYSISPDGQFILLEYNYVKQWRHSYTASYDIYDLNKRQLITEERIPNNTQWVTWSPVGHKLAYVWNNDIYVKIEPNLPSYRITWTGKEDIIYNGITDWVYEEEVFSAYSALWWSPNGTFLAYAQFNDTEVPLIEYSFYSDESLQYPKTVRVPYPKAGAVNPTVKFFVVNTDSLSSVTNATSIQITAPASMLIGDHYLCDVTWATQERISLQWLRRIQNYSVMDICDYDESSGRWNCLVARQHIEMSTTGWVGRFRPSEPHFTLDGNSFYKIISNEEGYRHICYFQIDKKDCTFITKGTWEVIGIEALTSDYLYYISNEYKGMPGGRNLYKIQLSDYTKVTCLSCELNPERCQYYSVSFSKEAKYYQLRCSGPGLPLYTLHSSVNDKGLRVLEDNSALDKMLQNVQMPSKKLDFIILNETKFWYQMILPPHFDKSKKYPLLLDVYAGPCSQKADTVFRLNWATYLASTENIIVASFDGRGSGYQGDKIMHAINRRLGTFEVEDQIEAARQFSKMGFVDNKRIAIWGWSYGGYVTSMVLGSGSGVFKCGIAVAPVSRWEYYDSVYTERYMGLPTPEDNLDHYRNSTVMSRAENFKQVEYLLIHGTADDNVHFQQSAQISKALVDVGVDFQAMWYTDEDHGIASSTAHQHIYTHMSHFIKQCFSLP
Description: The relation between the incubation time and the amount of substrate hydrolyzed was examined, glycyl-L-proline p-nitroanilide and human serum being used as substrate and enzyme source, respectively, and the assay of the substrate hydrolyzed was carried out by the following direct photometric method.
Glycyl-L-proline p-nitroanilide tosylate was dissolved in 2% non-ionic detergent (Nikkol NP-10; Nikko Chemicals, Osaka, Japan) aqueous solution in a concentration of 3 mM to prepare the substrate solution. The following four tubes were prepared:
(1) the experimental tube contained 0.5 ml of 0.15 M glycine-NaOH buffer (pH 8.7), 0.5 ml of the substrate solution, and 0.05 ml of human serum
(2) the blank tube contained 0.5 ml of the 0.15 M glycine-NaOH buffer, 0.5 ml of the substrate solution and 0.05 ml of water.
(3) the standard tube contained 0.5 ml of the buffer, 0.5 ml of the substrate and 0.05 ml of 3 mM p-nitroaniline aqueous solution.
(4) the control tube contained 0.5 ml of the buffer and 0.5 ml of the substrate.
All tubes were incubated at 37° C. for the periods listed in Table 1, and the reaction was stopped by the addition of 3.0 ml of 1M acetate buffer (pH 4.2) to every tube. To the control tube, 0.05 ml of the human serum was added after stopping the reaction. A photometer was adjusted to zero with the blank, and the absorbances of the experimental (E), control (C), and standard (S) were read at 385 nm in a cuvette with 1 cm light path. p-Nitroaniline liberated by the enzyme reaction was calculated by the equation [formula]
as §1, §2, §3
The activity of X-prolyl dipeptidyl-aminopeptidase was measured as in Example 22, glycyl-L-proline p-nitroanilide and 88 normal human sera being used as substrate and enzyme, respectively.
The activity of X-prolyl dipeptidyl-aminopeptidase was measured as in Example 22, glycyl-L-proline p-nitroanilide and human sera from patients being used as substrate and enzyme sources, respectively.
The activity of X-prolyl dipeptidyl-aminopeptidase was measured as in Example 22, various X-L-prolyl p-nitroanilides, and human sera from patients being used as substrates and enzyme sources, respectively.

[3] = biological target: T1, X-prolyl dipeptidyl-aminopeptidase in human serum; experiment: Azo-coupling assay of substrate hydrolysis (548 nm) with human serum as enzyme source; type: biochemical; conditions: 37° C., 30 minutes, pH 8.7
Description: The relation between the amount of enzyme and the amount of substrate hydrolyzed was examined, glycyl-L-proline p-nitroanilide tosylate and human serum being used as substrate and enzyme source, respectively, and the assay of the substrate hydrolyzed being carried out by the following azo-coupling method.
The following tubes were prepared: (1) the experimental tube contained 1.0 ml of 0.15 M glycine-NaOH buffer (pH 8.7), 1.0 ml of the substrate solution prepared in Example 22, and the volume listed in table 2 of human serum.
(2) the control tube contained 1.0 ml of the glycine-NaOH buffer, and 1.0 ml of the substrate solution.
Both experimental and control tubes were incubated at 37° C. for 30 minutes, and 0.1 ml of the serum was added to the control tube. The reaction was stopped by adding 0.4 ml of 30% perchloric acid aqueous solution. After centrifuging at 3000 rpm for 10 minutes, each 0.5 ml of the supernatant was transferred to another tube; besides 0.1 ml of […] p-nitroaniline aqueous solution and 2.4 ml of 30% perchloric acid solution were added to the standard tube, and 2.5 ml of the perchloric acid solution was added to the blank tube.
To all the four tubes, 0.5 ml of 0.2% sodium nitrite aqueous solution at 4° C., and they were kept at 4° C. for 10 minutes. Then, 0.5 ml of freshly prepared 0.5% ammonium sulfamate aqueous solution was added. After 2 minutes, 1.0 ml of 0.05% N-(1-naphthyl) ethylenediamine solution was added and the mixtures were incubated at 37° C. for 30 minutes in the dark.
A photometer was adjusted to zero with the blank, and the absorbances of the experimental (E), control (C), and standard (S) were read at 548 nm.
p-Nitroaniline formed enzymically was calculated by the equation: [formula] the volume of […] p-nitroaniline aqueous solution used in the standard tube (ml)).

[4] = Time for perfect dissolution in water with stirring; type: physicochemical; conditions: 0.23 mg in 100 ml water with stirring
Description: 0.23 mg of crystalline glycyl-L-proline p-nitroanilide tosylate was dissolved in 100 ml water with stirring. It took ca. 30 minutes at 20° C. and ca. 18 minutes at 30° C. for perfect dissolution.
On the other hand, 0.23 mg of porous glycyl-L-proline p-nitroanilide tosylate, which was prepared by freezing […]. mole aqueous solution of the same at -40° C. and then drying the freezed solid at 0.05 mmHg, was dissolved in 100 ml water with stirring as in the above procedure. It only took ca. 10 seconds at 20° C. and ca. 5 seconds at 30° C. for perfect dissolution.

[5] = human sera from patients, Gastric Cancer
[6] = human sera from patients, Hepatitis

Row | SMILES | Optimum pH [1] | Relative enzyme activity (%) Purified human submaxillary enzyme pH 7.0 [1] | Km [1] | Enzyme activity (μmole/min/1 serum ± S.E.) [2, 5] | Enzyme activity (μmole/min/1 serum ± S.E.) [2, 6] | Enzyme activity (μmole/min/1 serum ± S.E.) ([2]; human sera, Normal (control)) | Relative enzyme activity (%) Human serum pH 7.0 ([2]; human serum) | Relative enzyme activity (%) Human serum pH 8.7 ([2]; human serum) | also measured
1 | C[C@H](N)C(=O)N1CCC[C@H]1C(=O)Nc1ccc([N+](=O)[O-])cc1.Cl [L-alanyl-L-proline p-nitroanilide, L-Alanyl-L-proline p-nitroanilide hydrochloride] (H-Ala-Pro-pNA) | 8.5-8.7 | 86% | 14 µM | 18.5 ± 1.9 μmole/min/1 serum | 99.5 ± 17.0 μmole/min/1 serum | 36.6 ± 9.6 μmole/min/1 serum | 83% | 75% | –
2 | Cc1ccc(S(=O)(=O)O)cc1.Cc1ccc(S(=O)(=O)O)cc1.N=C(N)NCCC[C@H](N)C(=O)N1CCC[C@H]1C(=O)Nc1ccc([N+](=O)[O-])cc1 [L-arginyl-L-proline p-nitroanilide, L-Arginyl-L-proline p-nitroanilide ditosylate] (H-Arg-Pro-pNA) | 7.8-8.0 | 94% | 230 µM | 6.0 ± 0.7 μmole/min/1 serum | 35.5 ± 6.8 μmole/min/1 serum | 13.8 ± 3.6 μmole/min/1 serum | 86% | 55% | –
3 | N[C@@H](CC(=O)O)C(=O)N1CCC[C@H]1C(=O)Nc1ccc([N+](=O)[O-])cc1 [L-aspartyl-L-proline p-nitroanilide, L-Aspartyl-L-proline p-nitroanilide] (H-Asp-Pro-pNA) | 8.5-8.7 | 37% | 81 µM | 17.6 ± 1.6 μmole/min/1 serum | 102.5 ± 17.5 μmole/min/1 serum | 37.7 ± 9.0 μmole/min/1 serum | 34% | 28% | –
4 | N[C@@H](CCC(=O)O)C(=O)N1CCC[C@H]1C(=O)Nc1ccc([N+](=O)[O-])cc1 [L-glutamyl-L-proline p-nitroanilide, L-Glutamyl-L-proline p-nitroanilide] (H-Glu-Pro-pNA) | 8.5-8.7 | 58% | 23 µM | 13.9 ± 1.3 μmole/min/1 serum | 74.8 ± 17.6 μmole/min/1 serum | 27.5 ± 7.5 μmole/min/1 serum | 54% | 37% | –
5 | Cc1ccc(S(=O)(=O)O)cc1.Cc1ccc(S(=O)(=O)O)cc1.NCCCC[C@H](N)C(=O)N1CCC[C@H]1C(=O)Nc1ccc([N+](=O)[O-])cc1 [L-lysyl-L-proline p-nitroanilide, L-Lysyl-L-proline p-nitroanilide ditosylate] (H-Lys-Pro-pNA) | 8.5-8.7 | 121% | 120 µM | 8.2 ± 0.8 μmole/min/1 serum | 49.7 ± 10.2 μmole/min/1 serum | 18.2 ± 4.7 μmole/min/1 serum | 122% | 71% | –
6 | Br.O=C(Nc1ccc([N+](=O)[O-])cc1)[C@@H]1CCCN1 [L-proline p-nitroanilide, L-Proline p-nitroanilide hydrobromide, reference compound] | – | – | – | – | – | – | – | – | rate of hydrolysis by human serum, as % of hydrolysis of glycyl-L-proline p-nitroanilide ([2]; human serum): 0.7%
7 | Cc1ccc(S(=O)(=O)O)cc1.NCC(=O)N1CCC[C@H]1C(=O)Nc1ccc([N+](=O)[O-])cc1 [glycyl-L-proline p-nitroanilide tosylate, Glycyl-L-proline p-nitroanilide tosylate] (H-Gly-Pro-pNA) | – | – | – | – | – | – | – | – | Amount of p-nitroaniline formed ([3]; volume of serum 0.01 ml): 14.24 n mole; Amount of p-nitroaniline formed ([3]; volume of serum 0.02 ml): 32.91 n mole; Amount of p-nitroaniline formed ([3]; volume of serum 0.03 ml): 45.89 n mole; Amount of p-nitroaniline formed ([3]; volume of serum 0.04 ml): 62.50 n mole; Amount of p-nitroaniline formed ([3]; volume of serum 0.05 ml): 82.44 n mole; Amount of p-nitroaniline formed ([3]; volume of serum 0.10 ml): 155.06 n mole; time for perfect dissolution ([4]; 20° C., listed as crystalline glycyl-L-proline p-nitroanilide tosylate): ca. 30 minutes; time for perfect dissolution ([4]; 30° C., listed as crystalline glycyl-L-proline p-nitroanilide tosylate): ca. 18 minutes
8 | Cc1ccc(S(=O)(=O)O)cc1.NCC(=O)N1CCC[C@H]1C(=O)Nc1ccc([N+](=O)[O-])cc1 [glycyl-L-proline p-nitroanilide tosylate] (H-Gly-Pro-pNA) | – | – | – | – | – | – | – | – | time for perfect dissolution ([4]; 20° C., tosylate): ca. 10 seconds; time for perfect dissolution ([4]; 30° C., tosylate): ca. 5 seconds

— US4191808A, “Method of measuring dipeptidyl-amino-peptidase activity” (Ajinomoto Co., Inc., priority 1975, dated 1980)
